Data published in US20260069584A1, “METHODS OF TREATING CHRONIC MYELOID LEUKEMIA USING THE TYROSINE KINASE INHIBITOR VODOBATINIB” (Sun Pharma Advanced Research Company Ltd., priority 2022, published 2026).

Test: Part B: safety, treatment-emergent adverse events, DLT and MTD
Format: in vivo
Text: For the purpose of the present invention, the adverse events were graded as per the National Cancer Institute's, Common Terminology Criteria for Adverse Events (NCI-CTCAE) Version 4.03 and Version 5.0 (https://evs.nci.nih.gov/ftp1/CTCAE/About.html). It is a descriptive terminology which can be utilized for Adverse Event (AE) reporting.
AEs were graded as per NCI-CTCAE Version 5.0. In the present study, along with others most common AEs for which patients were monitored were thrombocytopenia, neutropenia and anemia, any AE reported by the patient after the completion of AE collection period and considered related to the study drug was reported.
Dose Limiting Toxicity (DLT) is defined as the occurrence of any of the following unless clearly and incontrovertibly related to the underlying disease. The hematological DLTs were defined as per the Phase of CML: • a) Grade 3 or higher, or other non-hematological toxicity, including nausea, vomiting and diarrhea, and refractory to standard antiemetic therapy except alopecia and nail disorders; • b) Missed ≥25% of doses over 28 days due to toxicity in Cycle 1; and • c) Any grade of toxicity requiring dose reduction or discontinuation of IMP within the 28-days DLT assessment period (Cycle 1).
Safety Parameters: Parts B and C: Descriptive summaries were provided for the safety variables collected. Continuous variables were summarized using mean, standard deviation, minimum, median, and maximum. Categorical variables were summarized using frequency counts and percentages. For time-to-event variables, other percentiles were presented. In addition, summaries of AEs by intensity, seriousness, frequency, and relationship to IMP are presented. Adverse events (AE) s were coded using the Medical Dictionary for Regulatory Activities (MedDRA) and summarized by System Organ Class (SOC) and Preferred Term (PT).
In this study, the dose-escalation cohort started with an accelerated titration study design (ATD) and shifted to a 3±3 design when subjects in the preceding ATD cohort experienced either grade 2 or higher adverse events (AEs) or dose-limiting toxicity (DLT) during Cycle 1 that was not clearly and incontrovertibly related to the underlying disease or concomitant medications. The DLT period consisted of 28 days (Cycle 1). Subjects experiencing DLTs were managed with dose delays and/or discontinuation and continued in the study until disease progression. Decisions to advance to a succeeding dose level occurred after the evaluation of safety and tolerability data for a given dose level.
For the cohorts, where the 3±3 design applies, 3 subjects were enrolled initially. If 2 of these subjects experienced a Grade 2 or more toxicity (that was not clearly and incontrovertibly related to the underlying disease or concomitant medications), subsequent cohorts were escalated according to smaller increments. Further, if there were no DLTs in the first 3 subjects, dose escalation to the next higher dose level was allowed to proceed. If 1 of the 3 subjects experienced a DLT, that dose level was expanded to 6 subjects (3 additional subjects were enrolled). If 2 subjects at a given dose level experienced a DLT, the MTD was considered to have been exceeded. The next lower dose level was expanded to 6 subjects, or if 6 subjects had already been enrolled and no more than 1 of the 6 subjects experienced a DLT, then this lower dose level was considered the MTD. Additional subjects were enrolled in dose escalation cohorts for further assessment of safety and efficacy of the compound of Formula 1 at doses that were tolerated (i.e., doses that have <2 DLTs in 6 enrolled subjects or <1 DLT in 3 enrolled subjects). Thus 204 mg was arrived at as MTD. A subject experiencing a DLT was allowed to continue therapy with a reduced dose. Subjects who experienced a DLT and recovered were treated at the next lower dose level until disease progression or other events requiring further dose reduction existed. […]

Cc1ccc(C(=O)NNC(=O)c2c(C)cccc2Cl)cc1C#Cc1cnc2ccccc2c1 [compound of Formula I, N′-(2-chloro-6-methylbenzoyl)-4-methyl-3-[2-(3-quinolyl)ethynyl]-benzohydrazide]
64.1%: grade 3 or 4 TEAEs (overall 53 patients)
1 No of pts: Back pain, Any grade (≤2 prior TKIs (N = 18)) | Decreased appetite, Any grade (≤2 prior TKIs (N = 18)) | Diarrhoea, Any grade (≤2 prior TKIs (N = 18)) | Headache, Any grade (≤2 prior TKIs (N = 18)) | Myalgia, Any grade (≤2 prior TKIs (N = 18))
37.7%: temporary dose interruptions (of patients)
2%: diarrhea (grade 3 or 4)
20.7%: dose modification (of patients)
1: deaths considered related to the compound (out of 5 deaths)
6 No of pts: All TEAEs, Grade 3/4 (≤2 prior TKIs (N = 18)) | SAEs, Any grade (≤2 prior TKIs (N = 18))
204 mg: MTD (maximum tolerated dose) (oral, once daily) | highest efficacious and tolerable daily dose (patients with prior TKI exposure, mutations and ACAs)
18.8%: thrombocytopenia (grade 3 or 4)
5 No of pts: TEAEs: Dose discontinued and restarted, Any grade (≤2 prior TKIs (N = 18))
5: deaths during the study (human, in vivo)
16 No of pts: All TEAEs, Any grade (≤2 prior TKIs (N = 18))
3 No of pts: Cough, Any grade (≤2 prior TKIs (N = 18)) | Death, Any grade (≤2 prior TKIs (N = 18)) | Nasopharyngitis, Any grade (≤2 prior TKIs (N = 18)) | TEAEs Leading to drug withdrawal, Any grade (≤2 prior TKIs (N = 18)) | TEAEs Related to comp of Formula I, Grade 3/4 (≤2 prior TKIs (N = 18))
13%: anemia (grade 3 or 4)
96.2%: TEAEs, any grade (overall 53 patients)
0 No of pts: Amylase increased, Any grade (≤2 prior TKIs (N = 18)) | Amylase increased, Grade 3/4 (≤2 prior TKIs (N = 18)) | Back pain, Grade 3/4 (≤2 prior TKIs (N = 18)) | Constipation, Grade 3/4 (≤2 prior TKIs (N = 18)) | Cough, Grade 3/4 (≤2 prior TKIs (N = 18)) | Death, Grade 3/4 (≤2 prior TKIs (N = 18)) | Decreased appetite, Grade 3/4 (≤2 prior TKIs (N = 18)) | Diarrhoea, Grade 3/4 (≤2 prior TKIs (N = 18)) | Fatigue, Grade 3/4 (≤2 prior TKIs (N = 18)) | Headache, Grade 3/4 (≤2 prior TKIs (N = 18)) | Lipase increased, Any grade (≤2 prior TKIs (N = 18)) | Lipase increased, Grade 3/4 (≤2 prior TKIs (N = 18)) | Myalgia, Grade 3/4 (≤2 prior TKIs (N = 18)) | Nasopharyngitis, Grade 3/4 (≤2 prior TKIs (N = 18)) | Nausea, Any grade (≤2 prior TKIs (N = 18)) | Nausea, Grade 3/4 (≤2 prior TKIs (N = 18)) | Pruritis, Grade 3/4 (≤2 prior TKIs (N = 18)) | Pyrexia, Grade 3/4 (≤2 prior TKIs (N = 18)) | Rhinitis, Grade 3/4 (≤2 prior TKIs (N = 18)) | TEAEs Leading to drug withdrawal, Grade 3/4 (≤2 prior TKIs (N = 18))
240 mg: daily doses at which dose-limiting toxicities were present (human, in vivo, 28 days)
2 No of pts: Anemia, Any grade (≤2 prior TKIs (N = 18)) | Anemia, Grade 3/4 (≤2 prior TKIs (N = 18)) | Constipation, Any grade (≤2 prior TKIs (N = 18)) | Fatigue, Any grade (≤2 prior TKIs (N = 18)) | Neutropenia, Any grade (≤2 prior TKIs (N = 18)) | Neutropenia, Grade 3/4 (≤2 prior TKIs (N = 18)) | Pruritis, Any grade (≤2 prior TKIs (N = 18)) | Pyrexia, Any grade (≤2 prior TKIs (N = 18)) | Rhinitis, Any grade (≤2 prior TKIs (N = 18)) | SAEs, Grade 3/4 (≤2 prior TKIs (N = 18)) | TEAEs: Dose discontinued and restarted, Grade 3/4 (≤2 prior TKIs (N = 18))
12 No of pts: TEAEs Related to comp of Formula I, Any grade (≤2 prior TKIs (N = 18))
